We go through 17 compounds from ChEMBL document CHEMBL2390846, “Small-molecule pyrimidine inhibitors of the cdc2-like (Clk) and dual specificity tyrosine phosphorylation-regulated (Dyrk) kinases: development of chemical probe ML315” (Bioorg Med Chem Lett, 2013).

The target of data set [1] is T1, Dual specificity protein kinase CLK4 (Homo sapiens, UniProt Q9HAZ1). In words: Inhibition of CLK4 (unknown origin) by bioluminescence assay. The following applies: read-out: IC50.
The target of data set [2] is Dual specificity protein kinase CLK3 (Homo sapiens, UniProt P49761).
The target of data set [3] is Dual specificity protein kinase CLK1 (Homo sapiens, UniProt P49759).
Data set [4] deals with T2, Dual specificity tyrosine-phosphorylation-regulated kinase 1A (Homo sapiens, UniProt Q13627).
Data set [5] deals with T1, Dual specificity protein kinase CLK4.
The target of data set [6] is Dual specificity protein kinase CLK2 (Homo sapiens, UniProt P49760).
For data set [7], the target named is Dual specificity tyrosine-phosphorylation-regulated kinase 1B (Homo sapiens, UniProt Q9Y463).
For data set [8], the target named is T2, Dual specificity tyrosine-phosphorylation-regulated kinase 1A. In words: Inhibition of DYRK1A (unknown origin) by bioluminescence assay. The following applies: read-out: IC50.
A short description of data set [9]: Plasma protein binding in mouse at 1 uM. Format: ADME, cell-free. The following applies: read-out: PPB (converted).
Data set [10] in a line: Aqueous solubility of the compound in PBS at pH 7.4. It is filed as physicochemical.
Data set [11] can be described thus: Metabolic stability in mouse plasma assessed as compound remaining at 3 hrs. It is filed as ADME, cell-free. The following applies: read-out: Stability.
Data set [12] is described as follows: Plasma protein binding in human at 10 uM. Format: ADME, cell-free. The following applies: read-out: PPB (converted).
For another data set, the target named is hERG (KCNH2) (Homo sapiens, UniProt Q12809). Kind of data set: Inhibition of human ERG at 10 uM relative to control.
Data set [13] is described as follows: Permeability of the compound in aqueous buffer at donor compartment pH 5.0 and acceptor compartment pH 7.4 by PAMPA. Format: ADME. A general note: In PAMPA a lipid-coated filter parts donor from acceptor wells.
Data set [14] is described as follows: Hepatotoxicity against human Fa2N-4 cells. Format: toxicity, cell-based. The following applies: read-out: LC50 (the source's name).
Data set [15] deals with L-type calcium channel, benzothiazepine binding site (Rattus norvegicus, UniProt P22002+P27732+Q02485). Kind of data set: Inhibition of rat L-type calcium channel benzothiazepine binding site at 10 uM relative to control.
Data set [16] can be described thus: Plasma protein binding in mouse at 10 uM. Format: ADME, cell-free. The following applies: read-out: PPB (converted).
Data set [17] is described as follows: Metabolic stability in human liver microsomes assessed as compound remaining at 1 hr. Format: ADME, Microsome. The following applies: read-out: Stability.
The nature of data set [18]: Permeability of the compound in aqueous buffer at donor compartment pH 6.2 and acceptor compartment pH 7.4 by PAMPA. Format: ADME.
The nature of data set [19]: Metabolic stability in mouse liver microsomes assessed as compound remaining at 1 hr. Format: ADME, Microsome. The following applies: read-out: Stability. (Liver microsomes are vesicles of endoplasmic reticulum, rich in cytochrome P450 enzymes.)
Data set [20] is described as follows: Solubility of the compound in assay media at pH 7.5. Format: physicochemical.
Data set [21] in a line: Plasma protein binding in human at 1 uM. It is filed as ADME, cell-free. The following applies: read-out: PPB (converted).
Data set [22] is described as follows: Permeability of the compound in aqueous buffer at donor compartment pH 7.4 and acceptor compartment pH 7.4 by PAMPA. Format: ADME.
The nature of data set [23]: Metabolic stability in human plasma assessed as compound remaining at 3 hrs. Format: ADME, cell-free. The following applies: read-out: Stability.

Converted amounts (≈) assume the structure as drawn. Some results are limits rather than exact numbers.

Broadly, the IC50 is the concentration that gives 50% inhibition. As usually defined, the solubility is the dissolved amount per volume that the medium holds. A lower solubility goes with little dissolved substance. One may read the inhibition as the share of the control response that was lost under treatment.

T1 sequence (Q9HAZ1 whole entry): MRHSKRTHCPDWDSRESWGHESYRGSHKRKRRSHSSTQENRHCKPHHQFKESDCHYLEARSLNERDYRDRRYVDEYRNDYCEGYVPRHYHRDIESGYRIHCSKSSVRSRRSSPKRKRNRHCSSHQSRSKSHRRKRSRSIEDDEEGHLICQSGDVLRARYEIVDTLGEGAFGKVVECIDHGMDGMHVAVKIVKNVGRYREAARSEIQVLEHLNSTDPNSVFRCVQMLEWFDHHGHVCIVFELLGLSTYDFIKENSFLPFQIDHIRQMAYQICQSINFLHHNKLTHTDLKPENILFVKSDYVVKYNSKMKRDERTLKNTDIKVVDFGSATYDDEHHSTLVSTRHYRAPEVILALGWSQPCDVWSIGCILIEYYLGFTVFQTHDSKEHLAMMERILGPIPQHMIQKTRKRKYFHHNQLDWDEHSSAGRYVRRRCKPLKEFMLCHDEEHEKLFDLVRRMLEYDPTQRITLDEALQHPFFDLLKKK
Dual specificity tyrosine-phosphorylation-regulated kinase 1B, sequence (Q9Y463 whole entry): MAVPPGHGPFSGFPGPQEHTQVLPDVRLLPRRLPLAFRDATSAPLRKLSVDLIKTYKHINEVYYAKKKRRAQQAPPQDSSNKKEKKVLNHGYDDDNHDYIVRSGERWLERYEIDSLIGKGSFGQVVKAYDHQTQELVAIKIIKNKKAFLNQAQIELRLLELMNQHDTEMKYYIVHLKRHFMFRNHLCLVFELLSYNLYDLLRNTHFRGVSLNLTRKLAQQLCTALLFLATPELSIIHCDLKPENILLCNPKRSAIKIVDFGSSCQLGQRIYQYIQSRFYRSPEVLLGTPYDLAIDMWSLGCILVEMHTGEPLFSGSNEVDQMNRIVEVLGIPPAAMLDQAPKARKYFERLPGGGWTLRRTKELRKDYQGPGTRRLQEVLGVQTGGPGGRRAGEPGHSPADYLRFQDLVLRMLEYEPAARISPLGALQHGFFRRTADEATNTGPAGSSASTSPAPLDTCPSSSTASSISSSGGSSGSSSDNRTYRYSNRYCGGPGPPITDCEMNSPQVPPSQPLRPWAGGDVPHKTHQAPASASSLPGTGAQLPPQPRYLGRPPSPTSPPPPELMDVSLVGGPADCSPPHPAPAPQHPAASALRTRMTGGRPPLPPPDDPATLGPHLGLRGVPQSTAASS
Dual specificity protein kinase CLK2, sequence (P49760 whole entry): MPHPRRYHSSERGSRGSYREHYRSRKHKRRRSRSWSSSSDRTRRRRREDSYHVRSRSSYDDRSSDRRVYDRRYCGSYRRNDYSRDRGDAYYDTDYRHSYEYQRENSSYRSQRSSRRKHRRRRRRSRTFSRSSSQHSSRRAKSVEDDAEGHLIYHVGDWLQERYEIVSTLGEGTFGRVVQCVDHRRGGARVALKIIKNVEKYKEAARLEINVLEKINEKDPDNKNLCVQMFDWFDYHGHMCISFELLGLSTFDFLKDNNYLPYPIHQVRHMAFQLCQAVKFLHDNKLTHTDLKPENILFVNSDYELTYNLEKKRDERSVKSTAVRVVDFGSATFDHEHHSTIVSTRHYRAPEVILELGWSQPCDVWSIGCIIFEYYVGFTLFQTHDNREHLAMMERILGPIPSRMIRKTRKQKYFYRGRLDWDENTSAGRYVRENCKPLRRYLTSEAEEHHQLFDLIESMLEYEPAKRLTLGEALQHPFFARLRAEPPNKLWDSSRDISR
Dual specificity protein kinase CLK1, sequence (P49759 whole entry): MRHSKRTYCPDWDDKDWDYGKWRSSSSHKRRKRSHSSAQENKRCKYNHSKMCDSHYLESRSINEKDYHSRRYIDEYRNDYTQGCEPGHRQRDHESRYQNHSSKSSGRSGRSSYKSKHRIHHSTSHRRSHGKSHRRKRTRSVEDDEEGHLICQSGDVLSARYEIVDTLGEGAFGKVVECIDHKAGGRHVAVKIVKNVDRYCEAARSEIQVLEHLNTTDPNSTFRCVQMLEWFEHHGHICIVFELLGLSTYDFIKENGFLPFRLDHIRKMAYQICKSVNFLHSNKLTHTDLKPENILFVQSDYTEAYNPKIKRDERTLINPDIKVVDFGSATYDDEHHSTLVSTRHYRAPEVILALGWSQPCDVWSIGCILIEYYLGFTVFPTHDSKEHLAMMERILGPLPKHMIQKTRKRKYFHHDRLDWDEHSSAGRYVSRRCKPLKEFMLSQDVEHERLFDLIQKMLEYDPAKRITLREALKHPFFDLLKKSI
Dual specificity protein kinase CLK3, sequence (P49761 whole entry): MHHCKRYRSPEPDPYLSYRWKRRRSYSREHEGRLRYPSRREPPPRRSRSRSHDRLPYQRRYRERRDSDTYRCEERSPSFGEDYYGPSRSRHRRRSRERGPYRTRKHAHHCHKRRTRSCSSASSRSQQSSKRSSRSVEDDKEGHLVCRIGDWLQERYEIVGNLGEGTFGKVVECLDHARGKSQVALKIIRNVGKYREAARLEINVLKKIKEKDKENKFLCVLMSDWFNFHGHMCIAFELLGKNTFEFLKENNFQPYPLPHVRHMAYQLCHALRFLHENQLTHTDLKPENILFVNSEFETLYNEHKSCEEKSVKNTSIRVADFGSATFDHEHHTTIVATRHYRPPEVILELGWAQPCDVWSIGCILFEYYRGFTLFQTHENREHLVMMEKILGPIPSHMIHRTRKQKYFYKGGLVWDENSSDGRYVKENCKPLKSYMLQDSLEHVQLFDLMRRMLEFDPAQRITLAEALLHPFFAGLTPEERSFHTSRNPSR
hERG (KCNH2), sequence (Q12809 whole entry): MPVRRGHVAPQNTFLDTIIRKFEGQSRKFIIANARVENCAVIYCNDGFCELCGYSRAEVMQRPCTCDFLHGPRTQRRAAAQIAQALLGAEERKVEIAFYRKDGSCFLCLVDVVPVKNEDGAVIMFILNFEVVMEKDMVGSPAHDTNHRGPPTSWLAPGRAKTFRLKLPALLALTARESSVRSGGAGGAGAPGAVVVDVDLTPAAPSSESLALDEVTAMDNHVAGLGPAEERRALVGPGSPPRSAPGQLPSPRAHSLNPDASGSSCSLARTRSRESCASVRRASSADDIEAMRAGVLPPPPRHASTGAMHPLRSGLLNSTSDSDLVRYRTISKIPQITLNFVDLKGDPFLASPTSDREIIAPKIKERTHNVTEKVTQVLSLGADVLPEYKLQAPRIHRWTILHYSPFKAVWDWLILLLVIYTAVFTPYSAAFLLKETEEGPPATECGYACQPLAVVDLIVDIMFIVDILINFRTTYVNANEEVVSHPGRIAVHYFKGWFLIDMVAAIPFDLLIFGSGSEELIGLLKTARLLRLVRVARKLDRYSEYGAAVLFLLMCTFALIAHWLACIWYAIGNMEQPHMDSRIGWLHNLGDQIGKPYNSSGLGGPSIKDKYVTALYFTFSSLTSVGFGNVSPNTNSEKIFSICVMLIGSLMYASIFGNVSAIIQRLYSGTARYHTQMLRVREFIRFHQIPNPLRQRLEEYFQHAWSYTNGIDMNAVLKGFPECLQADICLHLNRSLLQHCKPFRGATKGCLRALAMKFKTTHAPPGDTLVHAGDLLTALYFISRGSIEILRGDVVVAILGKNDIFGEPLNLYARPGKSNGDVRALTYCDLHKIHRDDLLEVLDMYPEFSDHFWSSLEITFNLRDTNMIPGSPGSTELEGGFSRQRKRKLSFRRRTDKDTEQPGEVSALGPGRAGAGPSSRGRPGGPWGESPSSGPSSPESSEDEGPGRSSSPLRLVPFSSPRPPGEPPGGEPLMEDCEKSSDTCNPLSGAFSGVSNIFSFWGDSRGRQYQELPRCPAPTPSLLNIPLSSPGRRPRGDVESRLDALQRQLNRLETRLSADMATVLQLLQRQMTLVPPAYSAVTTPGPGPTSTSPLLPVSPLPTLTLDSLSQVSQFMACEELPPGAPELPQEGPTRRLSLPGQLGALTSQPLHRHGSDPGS

On to `FC(F)(F)c1cccc(Nc2nccc(-c3ccc4c(c3)OCO4)n2)c1`, for which the IC50 in data set [1] was 0.07 µM; in [2], more than 10 µM; in [3], 0.034 µM; in [4] it was 0.01 µM; in data set [5] it was 0.042 µM; in data set [6], 0.052 µM. Moreover, the results for the half-maximal inhibitory concentration (IC50) in data set [7] and in data set [8] were 0.018 µM and 0.07 µM, respectively.
Take `c1cncc(CNc2nccc(-c3ccc4c(c3)OCO4)n2)c1`: the concentration for half-maximal inhibition (IC50) in data set [1] is 0.02 µM; in data set [2], 1.47 µM; in data set [3], 0.011 µM; in data set [4] it was 0.007 µM; in [5], 0.016 µM; in [6], 0.06 µM. Further, the IC50 in [7] is 0.012 µM; in data set [8], 0.04 µM.
In the case of `c1cncc(CNc2ccnc(-c3ccc4[nH]ncc4c3)n2)c1`, the IC50 stood at 0.15 µM in data set [1]; 0.964 µM in [3]; 0.349 µM in data set [4]; 0.574 µM in data set [5]; 0.665 µM in data set [6]; 0.179 µM in data set [7]. In [8], the IC50 turned out to be 0.65 µM.
As to `c1cc(-c2ccc3c(c2)OCO3)nc(Nc2ccc3c(c2)OCO3)n1`, the IC50 was 0.12 µM in data set [1]; 0.18 µM in [3]; 0.025 µM in [4]; 0.075 µM in data set [5]; 0.259 µM in data set [6]; 0.042 µM in data set [7]. Besides, in data set [8], the 50% inhibitory concentration (IC50) turned out to be 0.13 µM.
With `Clc1cc(Cl)cc(CNc2ncncc2-c2ccc3c(c2)OCO3)c1`, the fraction unbound at 1 µM is 0.0051 in data set [9] and 0.0065 in [21]. The 50% inhibitory concentration (IC50) in data set [1] is 0.13 µM; in data set [2], more than 10 µM; in [3], 0.068 µM; in data set [4], 0.282 µM; in [5] it was 0.068 µM; in data set [6] it was 0.231 µM. Also, the 50% inhibitory concentration (IC50) in [7] was found to be 1.16 µM; in data set [8], 2.6 µM. The solubility in [10] turned out to be 1.15 µM (≈ 0.43 µg/mL); in data set [20], 1.71 µM (≈ 0.64 µg/mL). For the same compound, the remaining at 3 h in [11] was found to be 86.7%; in data set [23] it was 85.5%. Besides, the fraction unbound at 10 µM in data set [12] is 0.0022; in [16] it was 0.0053. Further, the inhibition at 10 µM amounted to 44% against hERG (KCNH2) and 26% in data set [15]. Also, the permeability in [13] is 2220 ×10⁻⁶ cm/s; in data set [18] it was 1360 ×10⁻⁶ cm/s; in data set [22], 1150 ×10⁻⁶ cm/s. Further, in [14], the CC50 was more than 50 µM. The remaining at 1 h in data set [17] worked out at 1.3%; in data set [19] it was 0.54%.
In the case of `Clc1ccc(CNc2nccc(-c3ccc4[nH]ncc4c3)n2)cc1Cl`, the concentration for half-maximal inhibition (IC50) is 0.03 µM in data set [1]; 2.93 µM in data set [2]; 0.041 µM in data set [3]; 0.129 µM in data set [4]; 0.03 µM in data set [5]; 0.19 µM in data set [6]. Moreover, the IC50 in [7] was 0.125 µM; in data set [8], 0.33 µM.
As to `Clc1ccc(CNc2nccc(-c3ccc4c(c3)OCO4)n2)cc1Cl`, the IC50 in [1] came to 0.04 µM; in [2], 3.63 µM; in [3], 0.008 µM; in data set [4] it was 0.026 µM; in data set [5] it was 0.014 µM; in data set [6], 0.02 µM. Besides, the results for the half-inhibitory concentration (IC50) in data set [7] and in data set [8] were 0.038 µM and 0.16 µM, respectively.
As for `Brc1ccc(CNc2nccc(-c3ccc4c(c3)OCO4)n2)cc1Br`, the IC50 in data set [1] was determined as 0.08 µM; in data set [2] it was 3.23 µM; in [3] it was 0.024 µM; in data set [4], 0.079 µM; in data set [5] it was 0.018 µM; in [6], 0.03 µM. Moreover, the results for the half-inhibitory concentration (IC50) in [7] and in [8] were 0.112 µM and 0.82 µM, respectively.
Regarding `Clc1ccc(Nc2nccc(-c3ccc4c(c3)OCO4)n2)cc1`, the IC50 in data set [1] is 0.37 µM; in data set [3], 1.26 µM; in data set [4] it was 0.273 µM; in data set [5], 5.45 µM; in [6], more than 10 µM; in [7] it was 0.884 µM. In addition, the IC50 in data set [8] worked out at 0.52 µM.
On to `c1cncc(CNc2nccc(-c3ccc4[nH]ncc4c3)n2)c1`, for which the concentration for half-maximal inhibition (IC50) in [1] amounted to 0.03 µM; in data set [2], 2.66 µM; in data set [3], 0.073 µM; in [4], 0.061 µM; in [5], 0.06 µM; in data set [6] it was 0.462 µM. Further, the IC50 amounted to 0.093 µM in data set [7] and 0.15 µM in data set [8].
Turning to `Clc1ccc(CNc2nccc(-c3ccc4c(c3)OCCO4)n2)cc1Cl`, the IC50 was 0.12 µM in [1]; more than 10 µM in data set [2]; 0.016 µM in [3]; 0.018 µM in data set [4]; 0.013 µM in [5]; 0.039 µM in data set [6]. For the same compound, the results for the IC50 in [7] and in data set [8] were 0.055 µM and 0.21 µM, respectively.
As for `COc1ccc(-c2ccnc(NCc3ccc(Cl)cc3)n2)cc1`, the 50% inhibitory concentration (IC50) in [1] was found to be 0.29 µM; in [3] it was 0.277 µM; in [4], 0.558 µM; in [5] it was 0.319 µM; in [6] it was 1.09 µM; in data set [7], 0.871 µM. Besides, the IC50 in [8] was found to be 2.07 µM.
As for `COc1ccc(-c2ccnc(NCc3ccc(Cl)c(Cl)c3)n2)cc1`, the IC50 in data set [1] was determined as 0.21 µM; in data set [3], 0.076 µM; in data set [4], 0.203 µM; in [5], 0.092 µM; in data set [6], 0.409 µM; in data set [7] it was 0.411 µM. Also, the IC50 in data set [8] stood at 1.16 µM.
As for `Clc1cc(Cl)cc(CNc2nccc(-c3ccc4c(c3)OCO4)n2)c1`, the IC50 in [2] was more than 10 µM; in data set [3] it was 0.002 µM; in data set [6], 0.023 µM; in [7] it was 0.007 µM.
With `Brc1cc(Br)cc(CNc2nccc(-c3ccc4c(c3)OCO4)n2)c1`, the IC50 in [1] was found to be 0.04 µM; in data set [3], 0.013 µM; in data set [4] it was 0.011 µM; in data set [5], 0.009 µM; in data set [6] it was 0.041 µM; in data set [7], 0.018 µM. In data set [8], the IC50 was determined as 0.07 µM.
Turning to `Clc1ccc(CNc2nccc(-c3ccc4cn[nH]c4c3)n2)cc1Cl`, the concentration for half-maximal inhibition (IC50) was 5.82 µM in [1]; 0.183 µM in data set [3]; 0.169 µM in data set [4]; 0.123 µM in data set [5]; 0.429 µM in [6]; 0.599 µM in data set [7]. In addition, in data set [8], the 50% inhibitory concentration (IC50) amounted to 1.64 µM.
Regarding `FC(F)(F)c1cc(Br)cc(Nc2nccc(-c3ccc4c(c3)OCO4)n2)c1`, the half-inhibitory concentration (IC50) in data set [1] amounted to 0.13 µM; in data set [3] it was 0.102 µM; in data set [4] it was 0.107 µM; in data set [5] it was 0.086 µM; in data set [6], 0.345 µM; in [7], 0.137 µM. In [8], the IC50 amounted to 0.52 µM.
